Test results as given in PubChem BioAssay AID2060502 (Molecular Pharmacology Branch, DTP, NCI, 2025).

System: 885724-159-R-J1-PDC complex spheroid viability
Assay: Anticancer human tumor 885724-159-R-J1-PDC patient-derived pancreatic adenocarcinoma cell line growth inhibition [GQUAD]
Settings: for IC50: curve of first compound; for viability, T/C: stronger effect = lower value; active = viability on the fitted dose curve at most 10% of control; inactive = the rest
Description: DNA G-quadruplex Stabilizer Agents in Combinations in Complex Spheroids
A high-throughput screen of multi-cell type tumor spheroids was designed to identify active combinations of DNA G-quadruplex stabilizer agents and targeted small molecules. Complex spheroids include a stromal component modeled by human endothelial cells (HUVEC) and fibroblasts modeled by human mesenchymal stem cells (MSCs). The concentration ranges selected for each drug and investigational agent were based upon clinically achievable concentrations if the clinical Cmax of the agent was known.
Compounds. The drugs and investigational agents: pidnarulex (CX-5461; NSC782164), APTO-253 (NSC789042), BRACO-19 (NSC847499), peposertib (NSC802822), ceralasertib (NSC780249), elimusertib (NSC800525), camonsertib (NSC841442), AZD-1390 (NSC803789), olaparib (NSC753686), talazoparib (NSC767125), ART-558 (NSC835418), sotorasib (NSC818433), MRTX-1133 (NSC836407), SN-38 (NSC673596), topotecan (NSC609699), etoposide (NSC141540), doxorubicin (NSC123127), gemcitabine (NSC613327), 5-fluorouracil (NSC19893), paclitaxel (NSC125973), vemurafenib (NSC761431), panobinostat (NSC761190), R-306465 (JNJ-16241199; NSC773264), adavosertib (NSC754352), TP-3654 (NSC805149), carboplatin (NSC241240), KSQ-4279 (NSC840948), and staurosporine (NSC755774) were obtained from the National Cancer Institute (NCI) Developmental Therapeutics Program Chemical Repository (34). The FDA-approved anticancer drug set is available from the NCI Developmental Therapeutics Program. […] The stock solutions were prepared in dimethyl sulfoxide (DMSO, Sigma-Aldrich, St. Louis, MO, cat. D2650) at 800-fold the tested concentration and stored at -70 degrees C prior to their use. All drugs and investigational agents were tested over a range starting from a high concentration at or near the clinical Cmax and decreasing in half-log increments. If the clinical Cmax for an agent had not been determined, the highest concentration tested was 10 microM.
2.3 Cell Culture. All cells were maintained in an incubator at 37 degrees C and 5% CO2 with 95% humidity. The PDC lines were cultured according to standard operating procedures established by the NCI PDMR. All PDCs were thawed and cultured in Matrigel-coated flasks prepared with a working solution of 1X Ham's F-12 nutrient mix, without supplementation (Invitrogen, cat. 11765054), 100 U/mL penicillin-streptomycin (Invitrogen, cat. 15140122), and 2.5% Matrigel (Corning Inc., cat. 354248) for the first three passages. The 857933-349-R-J2-PDC line was cultured in 6C/Colon 1B media, which includes advanced DMEM/F-12 (Thermo Fisher Scientific, cat. 12634028), 10 mM HEPES (Thermo Fisher Scientific, cat. 15630080), 1X GlutaMAX supplement (Thermo Fisher Scientific, cat. 35050061), 0.1 mg/mL primocin (InvivoGen, cat. ant-pm-2), 10% defined fetal bovine serum, heat inactivated (HyClone Laboratories Inc., cat. SH30070.03HI), 50% L-WRN conditioned media (ATCC, cat. CRL-3276), 1.25 mM N-Acetyl-L-cysteine (Sigma-Aldrich, cat. A9165), 10 mM nicotinamide (Sigma-Aldrich, cat. N0636), 1X B-27 supplement (Thermo Fisher Scientific, cat. 17504044), 1X N-2 supplement (Thermo Fisher Scientific, cat. 17502048), 10 microM Y-27632 dihydrochloride (Tocris Bioscience, cat. 1254), and 50 ng/mL human EGF recombinant protein (Thermo Fisher Scientific, cat. PHG0311). The 485176-168-R4-J1-PDC line was cultured in Panc media, which includes all 6C/Colon 1B media components plus 100 ng/mL human FGF-10 (Thermo Fisher Scientific, cat. 100-26), 500 nM SB-431542 (Selleckchem, cat. S1067), and gastrin (Tocris, cat. 3006).
[…]

[1] = second compound 0.0316 µM, first compound 0.0316 µM
[2] = second compound 0.0316 µM, first compound 0.1 µM
[3] = second compound 0.0316 µM, first compound 0.316 µM
[4] = second compound 0.0316 µM, first compound 1 µM
[5] = second compound 0.0316 µM, first compound 3.16 µM
[6] = second compound 0.0316 µM, first compound 10 µM
[7] = second compound 0.1 µM, first compound 0.0316 µM
[8] = second compound 0.1 µM, first compound 0.1 µM
[9] = second compound 0.1 µM, first compound 0.316 µM
[10] = second compound 0.1 µM, first compound 1 µM
[11] = second compound 0.1 µM, first compound 3.16 µM
[12] = second compound 0.1 µM, first compound 10 µM
[13] = second compound 0.316 µM, first compound 0.0316 µM
[14] = second compound 0.316 µM, first compound 0.1 µM
[15] = second compound 0.316 µM, first compound 0.316 µM
[16] = second compound 0.316 µM, first compound 1 µM
[17] = second compound 0.316 µM, first compound 3.16 µM
[18] = second compound 0.316 µM, first compound 10 µM
[19] = second compound 1 µM, first compound 0.0316 µM
[20] = second compound 1 µM, first compound 0.1 µM
[21] = second compound 1 µM, first compound 0.316 µM
[22] = second compound 1 µM, first compound 1 µM
[23] = second compound 1 µM, first compound 3.16 µM
[24] = second compound 1 µM, first compound 10 µM
[25] = second compound 3.16 µM, first compound 0.0316 µM
[26] = second compound 3.16 µM, first compound 0.1 µM
[27] = second compound 3.16 µM, first compound 0.316 µM
[28] = second compound 3.16 µM, first compound 1 µM
[29] = second compound 3.16 µM, first compound 3.16 µM
[30] = second compound 3.16 µM, first compound 10 µM
[31] = second compound 10 µM, first compound 0.0316 µM
[32] = second compound 10 µM, first compound 0.1 µM
[33] = second compound 10 µM, first compound 0.316 µM
[34] = second compound 10 µM, first compound 1 µM
[35] = second compound 10 µM, first compound 3.16 µM
[36] = second compound 10 µM, first compound 10 µM
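Also: spheroids exposed to agents for seven days before readout.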
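For viability, T/C in this document: percent of vehicle control viability where 100% = DMSO wells.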

COc1ncnc(C2CC2)c1-c1ncc2cnn(Cc3ccc(-c4nc(C(F)(F)F)cn4C(C)C)cc3)c2n1 + Cc1cnc(CNC(=O)c2c(=O)c3ccc(N4CCCN(C)CC4)nc3n3c2sc2ccccc23)cn1
> 10 µM: IC50 (second compound 0.0316 µM) | IC50 (second compound 0.1 µM) | IC50 (second compound 0.316 µM) | IC50 (second compound 1 µM) | IC50 (second compound 3.16 µM) | IC50 (second compound 10 µM)
inactive: viability, T/C [1] 113% | viability, T/C [2] 106% | viability, T/C [3] 103% | viability, T/C [4] 114% | viability, T/C [5] 115% | viability, T/C [6] 118% | viability, T/C [7] 117% | viability, T/C [8] 114% | viability, T/C [9] 111% | viability, T/C [10] 103% | viability, T/C [11] 112% | viability, T/C [12] 109% | viability, T/C [13] 97.5% | viability, T/C [14] 97.4% | viability, T/C [15] 92.4% | viability, T/C [16] 98.5% | viability, T/C [17] 110% | viability, T/C [18] 106% | viability, T/C [19] 95.1% | viability, T/C [20] 90.8% | viability, T/C [21] 93.6% | viability, T/C [22] 87.5% | viability, T/C [23] 99.3% | viability, T/C [24] 87.3% | viability, T/C [25] 76.4% | viability, T/C [26] 73.6% | viability, T/C [27] 73.2% | viability, T/C [28] 72.7% | viability, T/C [29] 82.5% | viability, T/C [30] 79.5% | viability, T/C [31] 69.5% | viability, T/C [32] 69.5% | viability, T/C [33] 61.8% | viability, T/C [34] 66.5% | viability, T/C [35] 76.7% | viability, T/C [36] 75.8%

O=C(NO)c1cnc(N2CCN(S(=O)(=O)c3ccc4ccccc4c3)CC2)nc1 + Cc1cnc(CNC(=O)c2c(=O)c3ccc(N4CCCN(C)CC4)nc3n3c2sc2ccccc23)cn1
0.434 µM: IC50 (second compound 1 µM)
0.549 µM: IC50 (second compound 0.0316 µM)
0.45 µM: IC50 (second compound 0.1 µM)
0.183 µM: IC50 (second compound 10 µM)
0.182 µM: IC50 (second compound 3.16 µM)
0.437 µM: IC50 (second compound 0.316 µM)
inactive: viability, T/C [1] 77.4% | viability, T/C [2] 83.3% | viability, T/C [3] 65.4% | viability, T/C [4] 31.2% | viability, T/C [7] 117% | viability, T/C [8] 79.7% | viability, T/C [9] 56.6% | viability, T/C [10] 40% | viability, T/C [11] 10.4% | viability, T/C [13] 102% | viability, T/C [14] 78.9% | viability, T/C [15] 63.3% | viability, T/C [16] 26.1% | viability, T/C [17] 12.7% | viability, T/C [19] 80.5% | viability, T/C [20] 70.4% | viability, T/C [21] 60% | viability, T/C [22] 28.4% | viability, T/C [25] 80.6% | viability, T/C [26] 59.6% | viability, T/C [27] 39.8% | viability, T/C [28] 23.7% | viability, T/C [31] 60.2% | viability, T/C [32] 58.5% | viability, T/C [33] 42% | viability, T/C [34] 20.5%
active: viability, T/C [5] 13.7% | viability, T/C [6] 0.25% | viability, T/C [12] 0.28% | viability, T/C [18] 0.32% | viability, T/C [23] 9.39% | viability, T/C [24] 0.18% | viability, T/C [29] 0.23% | viability, T/C [30] 0.18% | viability, T/C [35] 0.26% | viability, T/C [36] 0.22%

O=c1[nH]cc(F)c(=O)[nH]1 + Cc1cnc(CNC(=O)c2c(=O)c3ccc(N4CCCN(C)CC4)nc3n3c2sc2ccccc23)cn1
> 10 µM: IC50 (second compound 0.0316 µM) | IC50 (second compound 0.1 µM) | IC50 (second compound 0.316 µM) | IC50 (second compound 1 µM) | IC50 (second compound 3.16 µM) | IC50 (second compound 10 µM)
inactive: viability, T/C [1] 108% | viability, T/C [2] 107% | viability, T/C [3] 116% | viability, T/C [4] 118% | viability, T/C [5] 87.1% | viability, T/C [6] 88.8% | viability, T/C [7] 103% | viability, T/C [8] 107% | viability, T/C [9] 112% | viability, T/C [10] 116% | viability, T/C [11] 92.1% | viability, T/C [12] 102% | viability, T/C [13] 99.2% | viability, T/C [14] 109% | viability, T/C [15] 91.5% | viability, T/C [16] 103% | viability, T/C [17] 96.4% | viability, T/C [18] 97.1% | viability, T/C [19] 84.2% | viability, T/C [20] 84.1% | viability, T/C [21] 100% | viability, T/C [22] 87.1% | viability, T/C [23] 86.2% | viability, T/C [24] 83% | viability, T/C [25] 78.2% | viability, T/C [26] 89.7% | viability, T/C [27] 90.5% | viability, T/C [28] 78.1% | viability, T/C [29] 83.8% | viability, T/C [30] 84.4% | viability, T/C [31] 81.7% | viability, T/C [32] 77% | viability, T/C [33] 74.8% | viability, T/C [34] 84% | viability, T/C [35] 77.8% | viability, T/C [36] 72.2%
